Source: patent US7666901B2, “Analogs of 17-hydroxywortmannin as PI3K inhibitors” (Wyeth, priority 2004, dated 2010)

Experiments:
Human TOR = target: T1, Human TOR (Homo sapiens, UniProt P42345); test: Human TOR (mTOR) kinase assay, DELFIA format; type: biochemical
T1 construct: FLAG
Description: The PI3K/AKT/TOR pathway is critical for cell proliferation, growth, survival, and angiogensis. Accordingly, compounds of the present invention may also be useful to inhibit TOR activity. Similar in vivo and in vitro assays to those described above with reference to PI3K can be used to determine the minimum concentration of compound sufficient to inhibit TOR. A human TOR assay and a Rat1-IGF1 assay as described in Examples 67 and 68, respectively was performed with some embodiments of the invention. The results of these assays are shown below in Tables 1 and 2.
Human TOR assays (See Toral-Barza, et al. Biochem Biophys. Res. Commun. 2005 Jun. 24; 332(1):304-10) with purified enzyme are performed in 96-well plates by DELFIA format as follows. Enzymes are first diluted in kinase assay buffer (10 mM Hepes (pH 7.4), 50 mM NaCl, 50 mM b-glycerophosphate, 10 mM MnCl2, 0.5 mM DTT, 0.25 mM microcystin LR, and […] BSA). To each well, 12 mL of the diluted enzyme is mixed briefly with 0.5 mL test inhibitor or control vehicle dimethylsulfoxide (DMSO). The kinase reaction is initiated by adding 12.5 mL kinase assay buffer containing ATP and His6-S6K to give a final reaction volume of 25 mL containing 800 ng/mL FLAG-TOR, […] ATP and […] His6-S6K. The reaction plate is incubated for 2 hours (linear at 1-6 hours) at room temperature with gentle shaking and then terminated by adding 25 mL Stop buffer (20 mM Hepes (pH 7.4), 20 mM EDTA, 20 mM EGTA). The DELFIA detection of the phosphorylated (Thr-389) His6-S6K is performed at room temperature using a monoclonal anti-P(T389)-p70S6K antibody (1A5, Cell Signaling) labeled with Europium-N1-ITC (Eu) (10.4 Eu per antibody, PerkinElmer). The DELFIA Assay buffer and Enhancement solution can be purchased from PerkinElmer. 45 mL of the terminated kinase reaction mixture is transferred to a MaxiSorp plate (Nunc) containing 55 mL PBS. The His6-S6K is allowed to attach for 2 hours after which the wells are aspirated and washed once with PBS. 100 mL of DELFIA Assay buffer with 40 ng/mL Eu-P(T389)-S6K antibody is added. The antibody binding is continued for 1 hour with gentle agitation. The wells are then aspirated and washed 4 times with PBS containing 0.05% Tween-20 (PBST). […] of DELFIA Enhancement solution is added to each well and the plates are read in a PerkinElmer Victor model plate reader. Data obtained is used to calculate enzymatic activity and enzyme inhibition by potential inhibitors.

[1] = system: phosphor-AKT (S473) in Rat1 cells; test: Rat1-IGF1 assay (IGF-1 induced phospho-AKT immunoblot); type: cell-based, rat; settings: Rattus norvegicus
Description: Rat1 cells are plated in 6-well culture plates and serum-starved for 24 hours. Serum-starved cells are treated either with control vehicle or with various concentrations of 17-HWT for 2 hours, stimulated by IGF-1 (100 ng/mL) for 30 minutes. Total cellular lysates are prepared using NuPAGE-LDS sample buffer (Invitrogen), sonicated and then clarified by centrifugation. Equal amounts of proteins are subject to immunoblotting analysis using NuPAGE electrophoresis system and probed with phosphor-AKT (S473), total AKT antibodies (Signaling Technology).

[2] = system: LNCaP (human prostate carcinoma); test: Cell proliferation (MTS) assay, LNCaP; type: cell-based; settings: Homo sapiens, LNCaP, 72 h, three days treatment
Description: (§1) Results of cell proliferation assays for exemplary compounds are shown below in Tables 1 and 2. Cell lines LNCaP (human prostate carcinoma), MDA468 (human breast cancer cell), MDA435 (human breast adenocarcinoma), and DU145 (human prostate carcinoma[…]) were purchased from American Type Culture Collection (ATCC) (Rockville, Md.). Cells were cultured in RPMI Medium 1640 containing 10% fetal bovine serum (FBS) in a 37° C. incubator containing 5% CO2. All cell culture reagents were purchased from Gibco-BRL (Grand Island, N.Y.). Cells were plated in 96-well culture plates at about 3000 cells per well. One day following plating, compounds or vehicle controls (buffer only) were added to cells. Proliferation assays were performed three days post initiation of treatment.
(§2) For a non-radioactive cell proliferation assay, viable cell densities are determined by measuring metabolic conversion (by viable cells) of the dye MTS tatrazolium dye, a cell proliferation assay known by one of skill in the art (MTS assay), a previously established cell proliferation assay. The assay is performed using an assay kit (Promega Corp., Madison, Wis.). The assay plates are incubated for 1-2 hours, and the results are read in a 96-well format plate reader by measuring absorbance at 490 nm. Effect of each compound is calculated as a percentage of control cell growth obtained from vehicle-treated cells grown in the same plate.

[3] = system: MDA468 (human breast cancer cell); test: Cell proliferation (MTS) assay, MDA468; type: cell-based; settings: Homo sapiens, 72 h, three days treatment
Description: as §1, §2

[4] = system: MDA435 (human breast adenocarcinoma); test: Cell proliferation (MTS) assay, MDA435; type: cell-based; settings: Homo sapiens, MDA435, 72 h, three days treatment
Description: as §1, §2

[5] = system: DU145 (human prostate carcinoma/lymphocytic leukemia); test: Cell proliferation (MTS) assay, DU145; type: cell-based; settings: Homo sapiens, DU-145, 72 h, three days treatment
Description: as §1, §2

Row | SMILES | IC50 (Human TOR; Table 1) | IC50 ([1]; Table 1) | IC50 ([2]; Table 1) | IC50 ([3]; Table 1) | IC50 ([4]; Table 1) | IC50 ([5]; Table 1) | IC50 ([1]; Table 2) | IC50 (Human TOR; Table 2) | IC50 ([2]; Table 2) | IC50 ([3]; Table 2) | IC50 ([4]; Table 2) | IC50 ([5]; Table 2)
1 | COC[C@H]1OC(=O)/C(=C/N(C)C2CCCCC2)C2=C(O)C(=O)C3=C([C@H](OC(C)=O)C[C@@]4(C)C3CC[C@@H]4O)[C@]21C (stereo partly drawn) [Compound 9, (1E,4S,4aR,5R,6aS,7S)-1-{[cyclohexyl(methyl)amino]methylene}-7,11-dihydroxy-4-(methoxymethyl)-4a,6a-dimethyl-2,10-dioxo-1,2,4,4a,5,6,6a,7,8,9,9a,10-dodecahydroindeno[4,5-h]isochromen-5-yl acetate] | 86500 nM | > 0.1 µg/mL | 9.5 µg/mL | 10 µg/mL | 15 µg/mL | 13 µg/mL | – | – | – | – | – | –
2 | COC[C@H]1OC(=O)/C(=C/N(C)CCCN(C)C)C2=C(O)C(=O)C3=C([C@H](OC(C)=O)C[C@@]4(C)C3CC[C@@H]4O)[C@]21C (stereo partly drawn) [Compound 5, (1E,4S,4aR,5R,6aS,7S)-1-{[[3-(dimethylamino)propyl](methyl)amino]methylene}-7,11-dihydroxy-4-(methoxymethyl)-4a,6a-dimethyl-2,10-dioxo-1,2,4,4a,5,6,6a,7,8,9,9a,10-dodecahydroindeno[4,5-h]isochromen-5-yl acetate] | 2560 nM | 0.02 µg/mL | 0.4 µg/mL | 1.8 µg/mL | 15 µg/mL | 10 µg/mL | – | 1280 nM | 0.28 µg/mL | 2 µg/mL | 8.2 µg/mL | 9.5 µg/mL
3 | COC[C@H]1OC(=O)/C(=C/N2CCN(C3CCCCC3)CC2)C2=C(O)C(=O)C3=C([C@H](OC(C)=O)C[C@@]4(C)C3CC[C@@H]4O)[C@]21C (stereo partly drawn) [Compound 7, (1E,4S,4aR,5R,6aS,7S)-1-[(4-cyclohexylpiperazin-1-yl)methylene]-7,11-dihydroxy-4-(methoxymethyl)-4a,6a-dimethyl-2,10-dioxo-1,2,4,4a,5,6,6a,7,8,9,9a,10-dodecahydroindeno[4,5-h]isochromen-5-yl acetate] | 818 nM | 0.02 µg/mL | 0.88 µg/mL | 2 µg/mL | > 15 µg/mL | > 15 µg/mL | – | – | – | – | – | –

Further lines, with some results ahead:

Row | IC50 (Human TOR; Table 1) | IC50 ([1]; Table 1) | IC50 ([2]; Table 1) | IC50 ([3]; Table 1) | IC50 ([4]; Table 1) | IC50 ([5]; Table 1) | IC50 ([1]; Table 2) | SMILES | IC50 (Human TOR; Table 2) | IC50 ([2]; Table 2) | IC50 ([3]; Table 2) | IC50 ([4]; Table 2) | IC50 ([5]; Table 2)
4 | 3190 nM | 0.1 µg/mL | 2.8 µg/mL | 6 µg/mL | > 15 µg/mL | > 15 µg/mL | – | COC[C@H]1OC(=O)/C(=C/N2CCc3ccccc3C2)C2=C(O)C(=O)C3=C([C@H](OC(C)=O)C[C@@]4(C)C3CC[C@@H]4O)[C@]21C (stereo partly drawn) [Compound 12, (1E,4S,4aR,5R,6aS,7S)-1-(3,4-dihydroisoquinolin-2(1H)-ylmethylene)-7,11-dihydroxy-4-(methoxymethyl)-4a,6a-dimethyl-2,10-dioxo-1,2,4,4a,5,6,6a,7,8,9,9a,10-dodecahydroindeno[4,5-h]isochromen-5-yl acetate] | – | – | – | – | –
5 | – | – | – | – | – | – | > 0.2 µg/mL | COC[C@H]1OC(=O)/C(=C\NCCOCCOCCNC(=O)CCCC[C@H]2SC[C@H]3NC(=O)N[C@H]32)C2=C(O)C(=O)C3=C([C@H](OC(C)=O)C[C@@]4(C)C3CC[C@@H]4O)[C@]21C (stereo partly drawn) [Compound 51, (1Z,4S,4aR,5R,6aS,7S)-7,11-dihydroxy-4-(methoxymethyl)-4a,6a-dimethyl-2,10-dioxo-1-{12-oxo-16-[(3aR,4R,6aS)-2-oxohexahydro-1H-thieno[3,4-d]imidazol-4-yl]-5,8-dioxa-2,11-diazahexadec-1-ylidene}-1,2,4,4a,5,6,6a,7,8,9,9a,10-dodecahydroindeno[4,5-h]isochromen-5-yl acetate] | – | 2.8 µg/mL | 30 µg/mL | – | –
6 | 1900 nM | 0.02 µg/mL | 0.8 µg/mL | 1.8 µg/mL | > 15 µg/mL | 15 µg/mL | – | COC[C@H]1OC(=O)/C(=C/N2CCCCC2)C2=C(O)C(=O)C3=C([C@H](OC(C)=O)C[C@@]4(C)C3CC[C@@H]4O)[C@]21C (stereo partly drawn) [Compound 11, (1E,4S,4aR,5R,6aS,7S)-7,11-dihydroxy-4-(methoxymethyl)-4a,6a-dimethyl-2,10-dioxo-1-(piperidin-1-ylmethylene)-1,2,4,4a,5,6,6a,7,8,9,9a,10-dodecahydroindeno[4,5-h]isochromen-5-yl acetate] | – | – | – | – | –
